≈ marks a conversion by molar mass, not a printed value. Where two headings read alike, the source gives them in different places.
What was measured:
P. aeruginosa PAO1 = assay: Minimum inhibitory concentration, broth microdilution; assay type: cell-based, Pseudomonas aeruginosa; conditions: for MIC: Pseudomonas aeruginosa, PAO1
P. aeruginosa LESB58 [1] = assay: Minimum bactericidal concentration; assay type: cell-based; conditions: Pseudomonas aeruginosa
Description: For susceptibility testing under standard conditions, bacteria were cultured in Muller Hinton Broth MHB (Fort Richards Laboratories). Host mimicking conditions in vitro were simulated using tissue culture medium (TCM) consisting of Dulbecco’s modified Eagle medium (DMEM; Gibco #11965) supplemented with FBS (Moregate Biotech) (5% v/v) and glucose (1% w/v). Further susceptibility testing was also conducted in MHB supplemented with FBS (5% v/v) and DMEM supplemented with glucose (1% w/v) and MHB (10% v/v).
The minimum bactericidal concentration (MBC) was determined by spotting 5 μL from wells of the MIC plate at or above the MIC onto antibiotic free dYT agar. Plates were incubated at 37°C for another 22-24 hours. The MBC was recorded as the lowest antibiotic concentration with no visible growth on agar plates and the median value reported.

P. aeruginosa LESB58 [2] = assay: microbe, parasite or virus in culture; assay type: cell-based, Pseudomonas aeruginosa; conditions: for MIC: Pseudomonas aeruginosa
[3] = female, Swiss Webster, mouse, in vivo, sc, 1 day
P. aeruginosa LESB58 [4] = assay: Murine high density subcutaneous skin abscess model; assay type: in vivo, Pseudomonas aeruginosa; conditions: day 3; for Area of dermoncecrosis, Mean: female Swiss Webster mice
[5] = LESB58, TCM (DMEM + 1% Glucose + 10% MHB)
[6] = Colistin, tigecycline and tobramycin groups, compared to the vehicle control

With `CC(C)(O/N=C(\C(=O)N[C@@H]1C(=O)N2C(C(=O)[O-])=C(C[n+]3ccccc3)CS[C@H]12)c1csc(N)n1)C(=O)O` [CAZ, ceftazidime] the “Fold change TCM vs MHB (MIC)” value (P. aeruginosa PAO1; MIC in TCM vs MIC in MHB) was 8, the MIC (P. aeruginosa PAO1; read-out: MIC in MHB) was 3.13 mg/L (≈ 5.73 µM) and the MIC (P. aeruginosa PAO1; read-out: MIC in TCM) was 25 mg/L (≈ 45.7 µM). It also gave an MBC (P. aeruginosa LESB58 [1]; LESB58, MHB) greater than 500 mg/L, an MBC (P. aeruginosa LESB58 [1]; LESB58, MHB + 5% FBS) greater than 500 mg/L and an MBC (P. aeruginosa LESB58 [1]; [5]) of 500 mg/L. The MBC (P. aeruginosa LESB58 [1]; LESB58, TCM (DMEM + 1% glucose + 5% FBS)) was greater than 500 mg/L, the “Fold increase MIC of CAZ or CZA” value (P. aeruginosa LESB58 [2]; MHB + 5% FBS compared to MHB) was 8 and the “Fold increase MIC of CAZ or CZA” value (P. aeruginosa LESB58 [2]; MHB + 5% FBS compared to MHB, listed as ceftazidime) was “eight”. For the same compound, the “Fold change TCM vs MHB (MIC)” value (P. aeruginosa LESB58 [2]; MIC in TCM vs MIC in MHB) was 4, the MIC (P. aeruginosa LESB58 [2]; LESB58, MHB + 5% FBS) was 250 mg/L and the MIC (P. aeruginosa LESB58 [2]; [5]) was 62.5 mg/L. For the same compound, the MIC (P. aeruginosa LESB58 [2]; LESB58, read-out: MIC in MHB, MHB, 20-24 h) was 31.2 mg/L (≈ 57.2 µM), the MIC (P. aeruginosa LESB58 [2]; LESB58, read-out: MIC in TCM, TCM (DMEM + 1% glucose + 5% FBS), 20-24 h) was 125 mg/L and the “Fold increase MIC of CAZ or CZA” value (P. aeruginosa LESB58 [2]; TCM (DMEM + 1% Glucose + 10% MHB) compared to MHB) was 2. For the same compound, the “Fold increase MIC of CAZ or CZA” value (P. aeruginosa LESB58 [2]; TCM (DMEM + 1% Glucose + 10% MHB) compared to MHB, listed as ceftazidime) was “two”, the “Fold increase MIC of CAZ or CZA” value (P. aeruginosa LESB58 [2]; TCM (DMEM + 1% glucose + 5% FBS) compared to MHB) was 4 and the “Fold increase MIC of CAZ or CZA” value (P. aeruginosa LESB58 [2]; TCM (DMEM + 1% glucose + 5% FBS) compared to MHB, listed as ceftazidime) was “four”. The “Highest tolerated dose tested” value [3] was 50 mg/mL, the “Toxic (visible skin irritation, inflammation, blood vessels, swelling)” value [3] was 100 mg/mL and the “CFU per abscess, Fold change” value (P. aeruginosa LESB58 [4]; Azithromycin group, compared to the vehicle control) was -1.4. For the same compound, the “CFU per abscess, Geometric mean” value (P. aeruginosa LESB58 [4]; Azithromycin group, CAZ or CZA 50 mg/mL, AZM 6.25 mg/mL) was 2.6 × 10^8 CFU per abscess, the “Area of dermoncecrosis, Mean” value (P. aeruginosa LESB58 [4]; Azithromycin group, 50 μL s.c. into infected area 1 h after infection, CAZ or CZA 50 mg/mL, AZM 6.25 mg/mL, vehicle citric acid in saline) was 107.3 mm^2 and the “Area of dermoncecrosis, Mean” value (P. aeruginosa LESB58 [4]; Colistin, tigecycline and tobramycin groups (shared vehicle, CAZ and CZA mice), 50 μL s.c. 1 h after infection, CAZ or CZA 50, CST 1.25, TGC 2.5, TOB 2 mg/mL, vehicle 0.9% saline) was 85.3 mm^2. For the same compound, the “Area of dermoncecrosis, % reduction” value (P. aeruginosa LESB58 [4]; [6]) was 9.2%, the “CFU per abscess, Fold change” value (P. aeruginosa LESB58 [4]; [6]) was -1.8 and the “CFU per abscess, Geometric mean” value (P. aeruginosa LESB58 [4]; Colistin, tigecycline and tobramycin groups) was 1.3 × 10^8 CFU per abscess.
